Source: patent US20230263826A1, “Compositions and Methods for Treatment and Prevention of Type 1 Diabetes” (The UAB Research Foundation, priority 2021, published 2023)

Tested on: female NOD mice
Test: Plasma lipidomics in FKGK18- and PBS-T-treated NOD mice that developed T1D
Format: in vivo, mouse
Conditions: treatment initiated at 10 days or 4 weeks of age
Experimental: FIGS. 11A-11I show a comparison of select plasma lipids in diabetic NOD mice. NOD mice were treated with PBS-Tor with FKGK18, starting at 10 days or 4 weeks of age, and sacrificed at the onset of diabetes. Plasma was prepared from these mice and processed for lipidomics analyses. The data (mean±SEM) represent pmol of each lipid species in 100 or 50 µL plasma fo LTC4 (FIG. 11A), 15-HETE (FIG. 11B), 5-HETE (FIG. 11C), PGD2 (FIG. 11D), AA (FIG. 11E), So1P/So (FIG. 11F), EET/DHET (FIG. 11G), resolving D2 (FIG. 11H), and DHA (FIG. 11I). (Statistical analyses: Students′ t-test. N=4/group.).
Next, to determine if a proinflammatory landscape persists until T1D onset, Applicants performed lipidomic analyses with plasma from FKGK18- and PBS-T-treated NOD (starting at 10 days). […] Furthermore, the ratio of So1P/So was higher in diabetic PBS-T-NOD, in comparison with nondiabetic PBS-T- or FKGK18-treated NOD (FIG. 6F). […]
Analysis of sphingolipids, eicosanoids, and fatty acids by ultra performance liquid chromatography-electrospray ionization-tandem mass spectrometry. […] Sphingolipids, eicosanoids, and fatty acids were analyzed via mass spectrometry using an AB Sciex Triple Quad 5500 Mass Spectrometer. […] The MΦ (2.75 × 10^6) were administered i.p. to 8-week-old female NOD, and diabetes incidence was recorded through weekly blood glucose monitoring.

In the case of `O=C(CCCCc1ccc2ccccc2c1)C(F)(F)F` [FKGK18], the “plasma PGD2 relative to PBS-T (d) groups” value (mice that developed T1D) is reported as “decrease” and the “plasma lipids vs PBS-T in mice that developed T1D” value (sacrificed at onset of diabetes, all lipids except PGD2) is reported as “no differences”.
